From ChEMBL document CHEMBL1201862, “PubChem BioAssay data set” (2004)
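Step 1: Grow cells in 96-well plates. Step 2: Expose to compound for 48 hours at 5 concentrations. Step 3: Interpolate endpoints linearly; if unreached, use highest concentration. The concentration for 50% growth inhibition is given as GI50.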 Active and inactive are the calls of the source. Cut-off read from the data, not from the text of the source: active = GI50 up to about 1.1 µM and inactive = higher.

Experiments:
Assay in all cases: NCI tumour cell line growth inhibition, 48 h
EKVX = system: EKVX
BT-549 = system: BT-549
MOLT-4 = system: MOLT-4
SW-620 = system: SW-620
PC-3 = system: PC-3
HOP-62 = system: HOP-62
NCI-H226 = system: NCI-H226
COLO 205 = system: COLO 205
HT-29 = system: HT-29
SNB-75 = system: SNB-75
NCI-H522 = system: NCI-H522
SF-539 = system: SF-539
UACC-62 = system: UACC-62
ACHN = system: ACHN
U-251 = system: U-251
CAKI-1 = system: CAKI-1
DU-145 = system: DU-145
NCI-H460 = system: NCI-H460
Hs-578T = system: Hs-578T
OVCAR-8 = system: OVCAR-8
LOX IMVI = system: LOX IMVI
IGROV-1 = system: IGROV-1
SK-OV-3 = system: SK-OV-3
HCC 2998 = system: HCC 2998
SF-295 = system: SF-295
HCT-116 = system: HCT-116
Malme-3M = system: Malme-3M
HL-60 = system: HL-60
NCI/ADR-RES = system: NCI/ADR-RES
K562 = system: K562
MDA-MB-435 = system: MDA-MB-435
SNB-19 = system: SNB-19
A549 = system: A549
NCI-H23 = system: NCI-H23
MCF7 = system: MCF7
UACC-257 = system: UACC-257
RXF 393 = system: RXF 393
SN12C = system: SN12C
OVCAR-4 = system: OVCAR-4
MDA-MB-231 = system: MDA-MB-231
OVCAR-5 = system: OVCAR-5
CCRF-CEM = system: CCRF-CEM
SK-MEL-28 = system: SK-MEL-28
HCT-15 = system: HCT-15
SK-MEL-2 = system: SK-MEL-2
MDA-N = system: MDA-N
RPMI-8226 = system: RPMI-8226
UO-31 = system: UO-31
SR = system: SR
OVCAR-3 = system: OVCAR-3
T47D = system: T47D
SK-MEL-5 = system: SK-MEL-5
TK-10 = system: TK-10
SF-268 = system: SF-268
A498 = system: A498
M14 = system: M14
786-0 = system: 786-0
KM12 = system: KM12
HOP-92 = system: HOP-92

COc1ccc(-c2nc(N)c(C#N)c3c2CCSc2ccc(C)cc2-3)cc1OC
GI50 (EKVX): 17.9 µM (inactive) | GI50 (BT-549): 8.59 µM (inactive) | GI50 (MOLT-4): 3.49 µM (inactive) | GI50 (SW-620): 22.1 µM (inactive) | GI50 (PC-3): 8.51 µM (inactive) | GI50 (HOP-62): 42.8 µM (inactive) | GI50 (NCI-H226): 14.8 µM (inactive) | GI50 (COLO 205): 5.51 µM (inactive) | GI50 (HT-29): 14.2 µM (inactive) | GI50 (SNB-75): 10.7 µM (inactive) | GI50 (NCI-H522): 5.89 µM (inactive) | GI50 (SF-539): 17.1 µM (inactive) | GI50 (UACC-62): 10.9 µM (inactive) | GI50 (ACHN): 19.9 µM (inactive) | GI50 (U-251): 18.1 µM (inactive) | GI50 (CAKI-1): 19.6 µM (inactive) | GI50 (DU-145): 14.8 µM (inactive) | GI50 (NCI-H460): 18.5 µM (inactive) | GI50 (Hs-578T): 8.2 µM (inactive) | GI50 (OVCAR-8): 22.4 µM (inactive) | GI50 (LOX IMVI): 14.8 µM (inactive) | GI50 (IGROV-1): 23.1 µM (inactive) | GI50 (SK-OV-3): 10.9 µM (inactive) | GI50 (HCC 2998): 16.3 µM (inactive) | GI50 (SF-295): 6.67 µM (inactive) | GI50 (HCT-116): 10.8 µM (inactive) | GI50 (Malme-3M): 20.5 µM (inactive) | GI50 (HL-60): 2.89 µM (inactive) | GI50 (NCI/ADR-RES): 12.3 µM (inactive) | GI50 (K562): 1.24 µM (inactive) | GI50 (MDA-MB-435): 4.61 µM (inactive) | GI50 (SNB-19): 31.3 µM (inactive) | GI50 (A549): 12.3 µM (inactive) | GI50 (NCI-H23): 8.04 µM (inactive) | GI50 (MCF7): 12.1 µM (inactive) | GI50 (UACC-257): 13.8 µM (inactive) | GI50 (RXF 393): 13.7 µM (inactive) | GI50 (SN12C): 17.3 µM (inactive) | GI50 (OVCAR-4): 16.7 µM (inactive) | GI50 (MDA-MB-231): 8.22 µM (inactive) | GI50 (OVCAR-5): 47.2 µM (inactive) | GI50 (CCRF-CEM): 4.12 µM (inactive) | GI50 (SK-MEL-28): 39.7 µM (inactive) | GI50 (HCT-15): 9.4 µM | GI50 (SK-MEL-2): 25.4 µM (inactive) | GI50 (MDA-N): 3.79 µM (inactive) | GI50 (RPMI-8226): 0.594 µM (active) | GI50 (UO-31): 4.16 µM (inactive) | GI50 (SR): 2.6 µM (inactive) | GI50 (OVCAR-3): 20.7 µM (inactive) | GI50 (T47D): 4.17 µM (inactive) | GI50 (SK-MEL-5): 6.18 µM (inactive) | GI50 (TK-10): 26.4 µM (inactive) | GI50 (SF-268): 17.2 µM (inactive) | GI50 (A498): 22.5 µM (inactive) | GI50 (M14): 29.1 µM (inactive) | GI50 (786-0): 15 µM (inactive) | GI50 (KM12): 6.84 µM (inactive) | GI50 (HOP-92): 10.1 µM (inactive)

C[N+](C)(C)CC1CCCCCCCCCCC1=O (configuration not stated)
GI50 (EKVX): > 100 µM (inactive) | GI50 (BT-549): > 100 µM (inactive) | GI50 (MOLT-4): > 100 µM (inactive) | GI50 (SW-620): > 100 µM (inactive) | GI50 (PC-3): > 100 µM (inactive) | GI50 (HOP-62): 39.4 µM (inactive) | GI50 (NCI-H226): > 100 µM (inactive) | GI50 (COLO 205): > 100 µM (inactive) | GI50 (HT-29): > 100 µM (inactive) | GI50 (SNB-75): > 100 µM (inactive) | GI50 (NCI-H522): > 100 µM (inactive) | GI50 (SF-539): > 100 µM (inactive) | GI50 (UACC-62): > 100 µM (inactive) | GI50 (ACHN): > 100 µM (inactive) | GI50 (U-251): > 100 µM (inactive) | GI50 (CAKI-1): > 100 µM (inactive) | GI50 (DU-145): > 100 µM (inactive) | GI50 (NCI-H460): > 100 µM (inactive) | GI50 (Hs-578T): > 100 µM (inactive) | GI50 (OVCAR-8): > 100 µM (inactive) | GI50 (LOX IMVI): > 100 µM (inactive) | GI50 (IGROV-1): > 100 µM (inactive) | GI50 (SK-OV-3): > 100 µM (inactive) | GI50 (HCC 2998): > 100 µM (inactive) | GI50 (SF-295): > 100 µM (inactive) | GI50 (HCT-116): > 100 µM (inactive) | GI50 (Malme-3M): > 100 µM (inactive) | GI50 (HL-60): > 100 µM (inactive) | GI50 (NCI/ADR-RES): > 100 µM (inactive) | GI50 (K562): > 100 µM (inactive) | GI50 (MDA-MB-435): > 100 µM (inactive) | GI50 (SNB-19): > 100 µM (inactive) | GI50 (A549): > 100 µM (inactive) | GI50 (NCI-H23): > 100 µM (inactive) | GI50 (MCF7): > 100 µM (inactive) | GI50 (UACC-257): > 100 µM (inactive) | GI50 (RXF 393): > 100 µM (inactive) | GI50 (SN12C): > 100 µM (inactive) | GI50 (OVCAR-4): > 100 µM (inactive) | GI50 (MDA-MB-231): > 100 µM (inactive) | GI50 (OVCAR-5): > 100 µM (inactive) | GI50 (CCRF-CEM): > 100 µM (inactive) | GI50 (SK-MEL-28): > 100 µM (inactive) | GI50 (HCT-15): > 100 µM | GI50 (SK-MEL-2): > 100 µM (inactive) | GI50 (MDA-N): > 100 µM (inactive) | GI50 (RPMI-8226): > 100 µM (inactive) | GI50 (UO-31): > 100 µM (inactive) | GI50 (SR): > 100 µM (inactive) | GI50 (OVCAR-3): > 100 µM (inactive) | GI50 (T47D): > 100 µM (inactive) | GI50 (SK-MEL-5): > 100 µM (inactive) | GI50 (TK-10): > 100 µM (inactive) | GI50 (SF-268): > 100 µM (inactive) | GI50 (A498): > 100 µM (inactive) | GI50 (M14): > 100 µM (inactive) | GI50 (786-0): > 100 µM (inactive) | GI50 (KM12): > 100 µM (inactive) | GI50 (HOP-92): > 100 µM (inactive)

N=c1oc2ccccc2cc1C(=O)NC12CC3CC(CC(C3)C1)C2
GI50 (EKVX): 21.9 µM (inactive) | GI50 (BT-549): 18.2 µM (inactive) | GI50 (MOLT-4): 2.41 µM (inactive) | GI50 (SW-620): 19.3 µM (inactive) | GI50 (PC-3): 17.8 µM (inactive) | GI50 (HOP-62): 22.6 µM (inactive) | GI50 (NCI-H226): 24.2 µM (inactive) | GI50 (COLO 205): 14.1 µM (inactive) | GI50 (HT-29): 6.11 µM (inactive) | GI50 (SNB-75): 19.3 µM (inactive) | GI50 (NCI-H522): 3.55 µM (inactive) | GI50 (SF-539): 16.9 µM (inactive) | GI50 (UACC-62): 15.8 µM (inactive) | GI50 (ACHN): 6.89 µM (inactive) | GI50 (U-251): 17.1 µM (inactive) | GI50 (CAKI-1): 7.52 µM (inactive) | GI50 (DU-145): 13.2 µM (inactive) | GI50 (NCI-H460): 14.4 µM (inactive) | GI50 (Hs-578T): 32.4 µM (inactive) | GI50 (OVCAR-8): 30.4 µM (inactive) | GI50 (LOX IMVI): 13.8 µM (inactive) | GI50 (IGROV-1): 16.5 µM (inactive) | GI50 (SK-OV-3): 7.64 µM (inactive) | GI50 (HCC 2998): 14.5 µM (inactive) | GI50 (SF-295): 20.6 µM (inactive) | GI50 (HCT-116): 15.6 µM (inactive) | GI50 (Malme-3M): 32.1 µM (inactive) | GI50 (HL-60): 9.16 µM (inactive) | GI50 (NCI/ADR-RES): 24.2 µM (inactive) | GI50 (K562): 13.9 µM (inactive) | GI50 (MDA-MB-435): 18.6 µM (inactive) | GI50 (SNB-19): 24.4 µM (inactive) | GI50 (A549): 16.2 µM (inactive) | GI50 (NCI-H23): 27.4 µM (inactive) | GI50 (MCF7): 3.7 µM (inactive) | GI50 (UACC-257): 23 µM (inactive) | GI50 (RXF 393): 6.52 µM (inactive) | GI50 (SN12C): 28.2 µM (inactive) | GI50 (OVCAR-4): 19.9 µM (inactive) | GI50 (MDA-MB-231): 20.1 µM (inactive) | GI50 (OVCAR-5): 37.5 µM (inactive) | GI50 (CCRF-CEM): 3.18 µM (inactive) | GI50 (SK-MEL-28): 40.4 µM (inactive) | GI50 (HCT-15): 12.5 µM | GI50 (SK-MEL-2): 14 µM (inactive) | GI50 (MDA-N): 26.2 µM (inactive) | GI50 (RPMI-8226): 5.71 µM (inactive) | GI50 (UO-31): 0.0887 µM (active) | GI50 (SR): 2.9 µM (inactive) | GI50 (OVCAR-3): 12.5 µM (inactive) | GI50 (T47D): 4.52 µM (inactive) | GI50 (SK-MEL-5): 21.2 µM (inactive) | GI50 (TK-10): 16 µM (inactive) | GI50 (SF-268): 34 µM (inactive) | GI50 (A498): 22.1 µM (inactive) | GI50 (M14): 25.7 µM (inactive) | GI50 (786-0): 2.88 µM (inactive) | GI50 (KM12): 12 µM (inactive) | GI50 (HOP-92): 25.8 µM (inactive)
